Test results as given in PMC3814370, “Functional assignment of KEOPS/EKC complex subunits in the biosynthesis of the universal t^6A tRNA modification” (Nucleic Acids Research, 2013).

Tests used:
Format in all cases: biochemical
[1] = target: T1, PaKEOPS (Pcc1-Kae1-Bud32-Cgi121) (Pyrococcus abyssi, UniProt Q9UYB9, D127R); test: TLC of radiolabelled ATP hydrolysis; details: 100 uM ATP, 50 °C, 30 min, with or without tRNA; reconstituted complex; labelled compound
T1 construct: recombinant from E. coli Rosetta2, His-tag purification; whole complex or reconstituted from Pcc1-Kae1 plus Bud32-Cgi121; homodimer of the heterotetramer; with tRNA N6-adenosine threonylcarbamoyltransferase; KEOPS complex Pcc1-like subunit; Regulatory protein Cgi121

[2] = target: T2, Bud32-Cgi121 binary complex (Pyrococcus abyssi, UniProt Q9UYB9); test: autophosphorylation with gamma-32P ATP, SDS-PAGE phosphorimaging; details: 25 uM cold ATP, 55 °C, 30 min; no ATPase activity in TLC assay; labelled compound
T2 construct: recombinant from E. coli Rosetta2, His-tag purification; binary complex, monomeric form; with Regulatory protein Cgi121
T2 sequence (Q9UYB9 1-220): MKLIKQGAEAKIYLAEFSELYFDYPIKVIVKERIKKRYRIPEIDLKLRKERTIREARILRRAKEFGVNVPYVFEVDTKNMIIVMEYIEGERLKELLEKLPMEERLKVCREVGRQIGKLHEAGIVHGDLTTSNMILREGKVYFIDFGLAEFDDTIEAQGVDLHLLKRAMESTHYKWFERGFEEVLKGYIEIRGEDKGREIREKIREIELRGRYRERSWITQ
T2 sequence (Q9UZ62 1-171 partner): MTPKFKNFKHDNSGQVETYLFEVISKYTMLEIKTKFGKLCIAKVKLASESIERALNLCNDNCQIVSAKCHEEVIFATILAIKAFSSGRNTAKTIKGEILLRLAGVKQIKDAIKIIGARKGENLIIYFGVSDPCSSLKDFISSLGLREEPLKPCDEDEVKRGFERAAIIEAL

[3] = target: T3, Kae1-Bud32 binary complex (Pyrococcus abyssi, UniProt Q9UYB9); test: TLC of radiolabelled ATP hydrolysis; details: 100 uM ATP, 50 °C, 30 min; independent of tRNA; labelled compound
T3 construct: recombinant from E. coli Rosetta2, His-tag purification; binary complex, monomeric form; with tRNA N6-adenosine threonylcarbamoyltransferase

[4] = target: T4, PaKEOPS (Pcc1-Kae1-Bud32-Cgi121) (Pyrococcus abyssi, UniProt Q9UYB9); test: TLC of radiolabelled ATP hydrolysis; details: 100 uM ATP, 50 °C, 30 min, with or without tRNA; reconstituted complex; labelled compound
T4 construct: recombinant from E. coli Rosetta2, His-tag purification; whole complex or reconstituted from Pcc1-Kae1 plus Bud32-Cgi121; homodimer of the heterotetramer; with tRNA N6-adenosine threonylcarbamoyltransferase; KEOPS complex Pcc1-like subunit; Regulatory protein Cgi121

[5] = target: T4, PaKEOPS (Pcc1-Kae1-Bud32-Cgi121); test: TLC of radiolabelled ATP hydrolysis; details: 100 uM ATP, 50 °C, 30 min, with or without tRNA; reconstituted complex; labelled compound; remark: listed apart in the source
[6] = target: T4, PaKEOPS (Pcc1-Kae1-Bud32-Cgi121); test: TLC of radiolabelled ATP hydrolysis; details: 100 uM ATP, 50 °C, 30 min; stimulated by tRNA; labelled compound
[7] = target: T5, Kae1-Bud32-Cgi121 ternary complex (Pyrococcus abyssi, UniProt Q9UYB9); test: TLC of radiolabelled ATP hydrolysis; details: 100 uM ATP, 50 °C, 30 min; independent of tRNA; labelled compound
T5 construct: recombinant from E. coli Rosetta2, His-tag purification; ternary complex, monomeric form; with tRNA N6-adenosine threonylcarbamoyltransferase; Regulatory protein Cgi121

For `Nc1ncnc2c1ncn2[C@@H]1O[C@H](COP(=O)(O)OP(=O)(O)OP(=O)(O)O)[C@@H](O)[C@H]1O` [ATP], the “ATPase activity totally lost” value [1] was “PaKEOPS (Bud32^D127R) totally lost the ATPase activity”, the autophosphorylation [2] was “When the reaction mixture contained only Bud32–Cgi121, a significant autophosphorylation activity of Bud32 was observed” and the ATPase activity [3] was “binary complex Kae1–Bud32 exhibited a significant ATPase activity”. For the same compound, the “wild-type ATPase activity” value [4] was “PaKEOPS (Kae1^D159A) behaved in the same manner as the wild-type PaKEOPS”, the “normal ATPase activity” value [5] was “the reconstituted mutant PaKEOPS exhibited normal ATPase activity” and the ATPase activity [6] was “the ATPase activity of the whole PaKEOPS complex is stimulated by the presence of tRNA”. For the same compound, the ATPase activity [7] was “we recorded a significant ATPase activity that was independent of tRNA”.
